Measurements from ChEMBL document CHEMBL1151400, “Plant antiviral agents. III. Isolation of alkaloids from Clivia miniata Regel (Amaryllidaceae)” (J Nat Prod, 1982).
Activity calls are given as the source filed them. The rule behind the calls is not given here.

Tests used:
[1] = system: Semliki Forest virus; experiment: Antiviral activity against Semliki forest virus infected african green monkey Vero cells assessed as reduction in virus-induced cytopathic effect at 50 ug/mL after 96 hrs measured as viral titer per ml by microscopy; format: functional
[2] = system: Simplexvirus; experiment: Antiviral activity against Herpes simplex virus infected african green monkey Vero cells assessed as reduction in virus-induced cytopathic effect at 100 ug/mL after 96 hrs measured as viral titer per ml by microscopy; format: functional
[3] = system: Simplexvirus; experiment: Antiviral activity against Herpes simplex virus infected african green monkey Vero cells assessed as reduction virus-induced cytopathic effect at 50 ug/mL after 96 hrs measured as viral titer per ml by microscopy; format: functional
[4] = system: Enterovirus C; experiment: Antiviral activity against Poliovirus infected african green monkey Vero cells assessed as reduction in virus-induced cytopathic effect at 50 ug/mL after 96 hrs measured as viral titer per ml by microscopy; format: functional
[5] = system: Measles morbillivirus; experiment: Antiviral activity against Measles virus infected african green monkey Vero cells assessed as reduction in virus-induced cytopathic effect at 100 ug/mL after 96 hrs measured as viral titer per ml by microscopy; format: functional
[6] = system: Semliki Forest virus; experiment: Antiviral activity against Semliki forest virus infected african green monkey Vero cells assessed as reduction in virus-induced cytopathic effect at 100 ug/mL after 96 hrs measured as viral titer per ml by microscopy; format: functional
[7] = system: Enterovirus C; experiment: Antiviral activity against Poliovirus infected african green monkey Vero cells assessed as reduction in virus-induced cytopathic effect at 100 ug/mL after 96 hrs measured as viral titer per ml by microscopy; format: functional
[8] = system: Measles morbillivirus; experiment: Antiviral activity against Measles virus infected african green monkey Vero cells assessed as reduction in virus-induced cytopathic effect at 50 ug/mL after 96 hrs measured as viral titer per ml by microscopy; format: functional
[9] = Therapeutic index, ratio of cytotoxicity against african green monkey Vero cells to antiviral activity against Semliki forest virus; format: cell-based; conditions: read-out: TI
[10] = system: Semliki Forest virus; experiment: Antiviral activity against Semliki forest virus infected african green monkey Vero cells assessed as reduction in virus-induced cytopathic effect at 20 ug/mL after 96 hrs measured as viral titer per ml by microscopy; format: functional
[11] = system: Semliki Forest virus; experiment: Antiviral activity against Semliki forest virus infected african green monkey Vero cells assessed as reduction in virus-induced cytopathic effect at 10 ug/mL after 96 hrs measured as viral titer per ml by microscopy; format: functional
[12] = system: Vero; experiment: Cytotoxicity against Poliovirus infected african green monkey Vero cells assessed as monolayer destruction at > 25 ug/mL; format: cell-based; conditions: chlorocebus sabaeus
[13] = system: Enterovirus C; experiment: Antiviral activity against Poliovirus infected african green monkey Vero cells assessed as reduction in virus-induced cytopathic effect at 10 ug/mL after 96 hrs measured as viral titer per ml by microscopy; format: functional
[14] = system: Enterovirus C; experiment: Antiviral activity against Poliovirus infected african green monkey Vero cells assessed as reduction in virus-induced cytopathic effect at 2.5 ug/mL after 96 hrs measured as viral titer per ml by microscopy; format: functional
[15] = Therapeutic index, ratio of cytotoxicity against african green monkey Vero cells to antiviral activity against Herpes simplex virus; format: cell-based; conditions: read-out: TI
[16] = system: Vero; experiment: Cytotoxicity against Poliovirus infected african green monkey Vero cells assessed as monolayer destruction at 100 ug/mL; format: cell-based; conditions: chlorocebus sabaeus
[17] = system: Simplexvirus; experiment: Antiviral activity against Herpes simplex virus infected african green monkey Vero cells assessed as reduction in virus-induced cytopathic effect at 10 ug/mL after 96 hrs measured as viral titer per ml by microscopy; format: functional
[18] = Therapeutic index, ratio of cytotoxicity against african green monkey Vero cells to antiviral activity against Measles virus; format: cell-based; conditions: read-out: TI
[19] = system: Enterovirus C; experiment: Antiviral activity against Poliovirus infected african green monkey Vero cells assessed as reduction in virus-induced cytopathic effect at 5 ug/mL after 96 hrs measured as viral titer per ml by microscopy; format: functional
[20] = system: Semliki Forest virus; experiment: Antiviral activity against Semliki forest virus infected african green monkey Vero cells assessed as reduction in virus-induced cytopathic effect at 5 ug/mL after 96 hrs measured as viral titer per ml by microscopy; format: functional
[21] = system: Enterovirus C; experiment: Antiviral activity against Poliovirus infected african green monkey Vero cells assessed as reduction in virus-induced cytopathic effect at 20 ug/mL after 96 hrs measured as viral titer per ml by microscopy; format: functional
[22] = system: Vero; experiment: Cytotoxicity against Measles virus infected african green monkey Vero cells assessed as monolayer destruction at 100 ug/mL; format: cell-based; conditions: chlorocebus sabaeus
[23] = system: Measles morbillivirus; experiment: Antiviral activity against Measles virus infected african green monkey Vero cells assessed as reduction in virus-induced cytopathic effect at 5 ug/mL after 96 hrs measured as viral titer per ml by microscopy; format: functional
[24] = system: Enterovirus C; experiment: Antiviral activity against Poliovirus infected african green monkey Vero cells assessed as reduction of virus-induced cytopathic effect at 1 ug/mL after 96 hrs by microscopy; format: functional, organism-based
[25] = system: Enterovirus C; experiment: Antiviral activity against Poliovirus infected african green monkey Vero cells assessed as reduction of virus-induced cytopathic effect at < 1 ug/mL after 4 days; format: functional, organism-based
[26] = system: Enterovirus C; experiment: Antiviral activity against Poliovirus infected african green monkey Vero cells assessed as reduction of virus-induced cytopathic effect at 1 ug/mL after 4 days; format: functional, organism-based
[27] = system: Measles morbillivirus; experiment: Antiviral activity against Measles virus infected african green monkey Vero cells assessed as reduction in virus-induced cytopathic effect at 20 ug/mL after 96 hrs measured as viral titer per ml by microscopy; format: functional
[28] = system: Vero; experiment: Cytotoxicity against african green monkey Vero cells assessed as monolayer destruction at 25 ug/mL after 24 hrs by trypan blue exclusion test; format: cell-based; conditions: chlorocebus sabaeus
[29] = system: Measles morbillivirus; experiment: Antiviral activity against Measles virus infected african green monkey Vero cells assessed as reduction in virus-induced cytopathic effect at 2.5 ug/mL after 96 hrs measured as viral titer per ml by microscopy; format: functional
[30] = Therapeutic index, ratio of cytotoxicity against african green monkey Vero cells to antiviral activity against Poliovirus; format: cell-based; conditions: read-out: TI
[31] = system: Measles morbillivirus; experiment: Antiviral activity against Measles virus infected african green monkey Vero cells assessed as reduction in virus-induced cytopathic effect at 10 ug/mL after 96 hrs measured as viral titer per ml by microscopy; format: functional
[32] = system: Vero; experiment: Cytotoxicity against african green monkey Vero cells assessed as monolayer destruction at 10 ug/mL after 24 hrs by trypan blue exclusion test; format: cell-based; conditions: chlorocebus sabaeus
[33] = system: Vero; experiment: Cytotoxicity against Semliki forest virus infected african green monkey Vero cells assessed as monolayer destruction at 100 ug/mL; format: cell-based; conditions: chlorocebus sabaeus
[34] = system: Vero; experiment: Effect on african green monkey Vero cell growth assessed as doubling of cell generation at 1 ug/mL after 24 hrs by trypan blue exclusion test; format: cell-based; conditions: chlorocebus sabaeus
[35] = system: Vero; experiment: Cytotoxicity against african green monkey Vero cells assessed as monolayer destruction at 50 ug/mL after 24 hrs by trypan blue exclusion test; format: cell-based; conditions: chlorocebus sabaeus
[36] = system: Simplexvirus; experiment: Antiviral activity against Herpes simplex virus infected african green monkey Vero cells assessed as reduction in virus-induced cytopathic effect at 5 ug/mL after 96 hrs measured as viral titer per ml by microscopy; format: functional
[37] = system: Vero; experiment: Cytotoxicity against Herpes simplex virus infected african green monkey Vero cells assessed as monolayer destruction at 50 ug/mL; format: cell-based; conditions: chlorocebus sabaeus
[38] = system: Simplexvirus; experiment: Antiviral activity against Herpes simplex virus infected african green monkey Vero cells assessed as reduction in virus-induced cytopathic effect at 20 ug/mL after 96 hrs measured as viral titer per ml by microscopy; format: functional
[39] = system: Semliki Forest virus; experiment: Antiviral activity against Semliki forest virus infected african green monkey Vero cells assessed as reduction in virus-induced cytopathic effect at 2.5 ug/mL after 96 hrs measured as viral titer per ml by microscopy; format: functional
[40] = system: Vero; experiment: Cytotoxicity against Measles virus infected african green monkey Vero cells assessed as monolayer destruction at 50 ug/mL; format: cell-based; conditions: chlorocebus sabaeus
[41] = system: Simplexvirus; experiment: Antiviral activity against Herpes simplex virus infected african green monkey Vero cells assessed as reduction in virus-induced cytopathic effect at 2.5 ug/mL after 96 hrs measured as viral titer per ml by microscopy; format: functional
[42] = system: Vero; experiment: Cytotoxicity against Semliki forest virus infected african green monkey Vero cells assessed as monolayer destruction at 50 ug/mL; format: cell-based; conditions: chlorocebus sabaeus
[43] = system: Vero; experiment: Cytotoxicity against Poliovirus infected african green monkey Vero cells assessed as monolayer destruction at 50 ug/mL; format: cell-based; conditions: chlorocebus sabaeus
[44] = system: Vero; experiment: Cytotoxicity against Herpes simplex virus infected african green monkey Vero cells assessed as monolayer destruction at 100 ug/mL; format: cell-based; conditions: chlorocebus sabaeus

Molecule `CN1CC[C@@H]2C[C@H](O)[C@@H]3OC(=O)c4cc5c(cc4[C@H]3[C@@H]21)OCO5` [CLIVONINE] has a pTCD50 [1] of 1, a pTCD50 [2] of 10 and a pTCD50 [3] of 1. For the same molecule, the pTCD50 [4] was 1, the pTCD50 [5] was 1 and the pTCD50 [6] was 10. It also gave a pTCD50 [7] of 10 and a pTCD50 [8] of 1.

For `O[C@H]1[C@H]2c3cc4c(cc3CN3CCC(=C[C@@H]1O)[C@H]23)OCO4` [LYCORINE], the selectivity ratio [9] was 10, the pTCD50 [10] was 10000 and the pTCD50 [11] was 1000. The Activity [12] was “Toxic”, the pTCD50 [13] was 1000 and the pTCD50 [14] was 100. The selectivity ratio [15] was 10, the Activity [16] was “Toxic” and the pTCD50 [17] was 1000. For the same molecule, the selectivity ratio [18] was 10, the pTCD50 [19] was 100 and the pTCD50 [20] was 1000. The pTCD50 [21] was 10000, the Activity [22] was “Toxic” and the pTCD50 [23] was 100. For the same molecule, the Activity [24] was “Active”, the Activity [25] was “inactive” and the Activity [26] was “Active”. The pTCD50 [27] was 1000, the Activity [28] was “Non-toxic” and the pTCD50 [29] was 100. The selectivity ratio [30] was 10, the pTCD50 [31] was 1000 and the Activity [32] was “Non-toxic”. For the same molecule, the Activity [33] was “Toxic”, the Activity [34] was “Active” and the Activity [35] was “Toxic”. The pTCD50 [36] was 1000, the Activity [37] was “Toxic” and the pTCD50 [38] was 1000. The pTCD50 [39] was 100, the Activity [40] was “Toxic” and the pTCD50 [41] was 100. The Activity [42] was “Toxic”, the Activity [43] was “Toxic” and the Activity [44] was “Toxic”.

Work on `Cc1nc(C)c(C(=O)O[C@H]2C[C@H]3CCN(C)[C@H]3[C@@H]3c4cc5c(cc4C(=O)O[C@H]32)OCO5)cc1C(=O)O[C@H]1C[C@H]2CCN(C)[C@H]2[C@@H]2c3cc4c(cc3C(=O)O[C@H]21)OCO4` [CLIVIMINE] yielded a pTCD50 [1] of 1, a pTCD50 [10] of 1 and a pTCD50 [11] of 1. The pTCD50 [13] was 1, the pTCD50 [14] was 1 and the pTCD50 [17] was 1. The pTCD50 [2] was 1, the pTCD50 [19] was 1 and the pTCD50 [20] was 1. The pTCD50 [21] was 1, the pTCD50 [23] was 1 and the pTCD50 [3] was 1. The pTCD50 [4] was 1, the pTCD50 [27] was 1 and the pTCD50 [29] was 1. For the same molecule, the pTCD50 [31] was 1, the pTCD50 [5] was 1 and the pTCD50 [36] was 1. It also gave a pTCD50 [6] of 10, a pTCD50 [38] of 1 and a pTCD50 [7] of 10. The pTCD50 [39] was 1, the pTCD50 [41] was 1 and the pTCD50 [8] was 1.

With `CCOC(=O)c1cc(C(=O)O[C@H]2C[C@H]3CCN(C)[C@H]3[C@@H]3c4cc5c(cc4C(=O)O[C@H]32)OCO5)c(C)nc1C` [CLIVIAMARTINE] the pTCD50 [1] was 1, the pTCD50 [2] was 10 and the pTCD50 [3] was 10. The pTCD50 [4] was 1, the pTCD50 [5] was 1 and the pTCD50 [6] was 10. The pTCD50 [7] was 10 and the pTCD50 [8] was 1.
